Test results published in PubChem BioAssay (NCI).
Where “and” joins values, the source holds several entries; their conditions need not be identical. Identical values can stand only once.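 Each compound was tested at five concentrations against cells in 96-well plates for 48 hours. The concentration for 50% growth inhibition is given as GI50. TGI marks complete inhibition of growth.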

Assays:
Experiment in all cases: NCI anticancer screen, dose series, 48 h
ACHN renal = tested on: ACHN renal
SF-268 CNS = tested on: SF-268 CNS
RPMI-8226 leukemia = tested on: RPMI-8226 leukemia
HL-60(TB) leukemia = tested on: HL-60(TB) leukemia
SK-MEL-28 melanoma = tested on: SK-MEL-28 melanoma
786-0 renal = tested on: 786-0 renal
MCF7 breast = tested on: MCF7 breast
KM12 colon = tested on: KM12 colon
DU-145 prostate = tested on: DU-145 prostate
SR leukemia = tested on: SR leukemia

SMILES | GI50 (ACHN renal) [µM] | TGI (ACHN renal) [µM] | GI50 (SF-268 CNS) [µM] | TGI (SF-268 CNS) | GI50 (RPMI-8226 leukemia) [µM] | TGI (RPMI-8226 leukemia) [µM] | GI50 (HL-60(TB) leukemia) [µM] | TGI (HL-60(TB) leukemia) [µM] | GI50 (SK-MEL-28 melanoma) [µM] | TGI (SK-MEL-28 melanoma) [µM] | GI50 (786-0 renal) [µM] | TGI (786-0 renal) | GI50 (MCF7 breast) [µM] | TGI (MCF7 breast) [µM] | GI50 (KM12 colon) [µM] | TGI (KM12 colon) [µM] | GI50 (DU-145 prostate) [µM] | TGI (DU-145 prostate) [µM] | TGI (SR leukemia) [µM] | GI50 (SR leukemia) [µM]
Cc1ccc(O)cc1Nc1ccnc2cc(-c3ccccn3)ccc12 | 0.611 | 5.16 | 1.71 | 5.88 µM | 4.25 | 9.88 | 4.69 | 9.53 | 3.38 | 6.79 | 2.98 | 6.66 µM | 2.71 | 6.07 | 3.01 | 6.57 | 1.38 | 8.28 |  | 
CN(C)CCNC(=O)c1cccc2cc3ccc4ccccc4c3nc12 |  | 0.0561 |  | 1.2 µM |  | 0.527 |  | 0.27 |  | 0.593 |  | 1.37 µM |  |  |  | 1.2 |  |  | 0.147 | 
C1CCN2CC3CONC3C2C1 (stereo unspecified) |  | > 100 |  | > 100 µM |  | > 100 |  | > 100 |  | > 100 |  | > 100 µM |  |  |  | > 100 |  |  |  | 
C=C(C)[C@@H]1CC[C@]2(C(=O)n3ccnc3)CC[C@]3(C)[C@H](CC[C@@H]4[C@@]5(C)CCCNC(C)(C)[C@@H]5CC[C@]43C)[C@@H]12 |  |  | 2.77 | 9.21 µM |  |  | 1.55 | 3.47 | 1.61 | 3.1 | 1.45 | 2.96 µM | 1.5 | 3.23 | 1.68 | 3.11 | 1.78 | 3.61 |  | 
CC(C)(C)c1cc(C(OCCl)(C(F)(F)F)C(F)(F)F)c2c(c1)C(C(F)(F)F)(C(F)(F)F)OC21c2ccccc2C(=O)c2ccccc21 |  | > 100 |  |  |  | > 100 |  |  |  | > 100 |  | > 100 µM |  |  |  | > 100 |  |  | > 100 | 
CC1CCC2c3c([nH]c4ccccc34)C3C(=O)N(c4ccccc4)C(=O)C3C2C1 (stereo unspecified) | 47.9 | 224 | 165 | 97.9 µM and > 250 µM |  |  |  | > 250 |  | > 250 | 77.6 | 40.6 µM and > 250 µM |  |  |  | > 250 |  |  | > 250 | > 250
CC1=C(C(=O)CC(=O)C(=O)Nc2ccccc2C)Sc2ccccc2N1 |  | > 100 |  | > 100 µM |  | > 65.5 |  | > 100 |  | > 100 |  | > 69.1 µM |  |  |  | > 100 |  |  | > 100 | 
COc1ncc2cc1NS(=O)(=O)c1cccc(c1)C(=O)NCC1=CC=C(S1)c1ncnc3c1SC2=C3C | 0.592 | 8.33 | 0.37 | 11.8 µM | 0.202 | 0.588 |  |  |  |  | 0.31 | 2.74 µM | 0.104 | 1.62 | 0.269 | 1.34 | 0.42 | 3.4 |  | 
CC(=O)OC1COC(Oc2c(C)c3c4c(c2O)[C@@H](C)CC[C@@H]4[C@@H](C)C[C@H]3C=C(C)C)C(O)C1O (stereo partly specified) | 18.5 | 36.8 | 15.4 | 38.5 µM | 16.6 | 39.5 |  |  | 23.8 | 57.3 | 19.2 | 43.2 µM | 20.7 | > 100 | 17.7 | 33.8 | 13.7 | 30.7 | 25.7 | 9.13
O=C(Nc1ccc(Cl)c(Cl)c1)C1C(=O)N(c2ccc(Cl)c(Cl)c2)C(=O)/C1=N\O (stereo unspecified) |  | > 100 |  | > 100 µM |  | > 100 |  |  |  | 82.8 |  | > 100 µM |  |  |  |  |  |  |  | 
Cc1ccc(NC2=CC(=O)C(=O)c3ccccc32)c(C)c1 | 3.71 | 13.9 | 3.75 | 16.2 µM | 4.84 | 53.7 | 2.59 | 8.06 | 3.54 | 13.5 | 8.44 | 20.8 µM | 0.905 | 4.77 | 2.82 | 13.1 | 1.58 | 2.93 |  | 
C=CC(C)(O)CCC1C(=C)C(O)CC2C(C)(C)CCCC12C (stereo unspecified) |  | 70.4 |  | 38 µM |  | 58.2 |  | 35.9 |  | 36.8 |  | 32.8 µM |  | 60 |  | 52.1 |  | 37.2 |  | 
O=C1c2ccoc2C(=O)c2oc(=O)ccc21 |  | 8.43 |  | 27.1 µM |  | 22.2 |  | 6.8 |  | 11.5 |  | 30.8 µM |  |  |  | > 57.7 |  |  | 3.83 | 
Cn1cc(NC(=O)c2cc(NC(=O)CCCCCCCC(=O)Nc3cc(C(=O)Nc4cc(C(=O)NCCC(=N)N)n(C)c4)n(C)c3)cn2C)cc1C(=O)NCCC(=N)N |  | > 100 |  | 45.9 µM |  |  |  | 16.3 |  | 26.3 |  | > 100 µM |  |  |  | 20 |  |  | 92.7 | 
CCOC(=O)C1=CSC2=NC3=C(CCC/C3=C\c3cc(OC)c(OC)c(OC)c3)C(c3cc(OC)c(OC)c(OC)c3)N12 (stereo unspecified) |  |  |  |  | 0.333 | 1.67 |  |  |  |  | > 100 | > 100 µM | 2.66 | > 100 |  |  | 3.48 | > 100 |  | 
NC(=O)C(=O)Cc1nc2ccccc2s1 |  | > 100 |  | > 100 µM |  | > 100 |  | > 100 |  | > 100 |  | > 100 µM |  |  |  | > 100 |  |  |  | 
O=c1[nH]c(=O)n(C2CC(O)C(O)C(CO)O2)cc1F (stereo unspecified) |  | > 100 |  | > 100 µM |  | > 100 |  | > 100 |  | > 100 |  | > 100 µM |  |  |  | > 100 |  |  |  | 
O=C1c2ccccc2-c2c1c1ccc([N+](=O)[O-])cc1c(=O)n2CCCCl | 4.29 | > 100 | 23.5 | > 100 µM | 1.36 | 33.3 | 52.4 | > 100 | 17 | > 100 | > 100 | > 100 µM | 1.12 | > 100 | > 100 | > 100 | 40.4 | > 100 |  | 
Cc1c(C)c2ccc(OC(C)C(=O)O)cc2oc1=O (stereo unspecified) |  | > 100 |  | > 100 µM |  | > 100 |  | > 100 |  | > 100 |  | > 100 µM |  |  |  | > 100 |  |  | > 100 | 
Nc1c(C(=O)Nc2ccccc2O)[n+]([O-])c2ccccc2[n+]1[O-] |  | > 100 |  |  |  | > 100 |  | > 100 |  | > 100 |  | > 100 µM |  |  |  | > 100 |  |  | > 100 | 
